Reference: ChEMBL document CHEMBL5543140 (J Med Chem, 2024)
Active and inactive are the calls of the source. No cut-off for these calls is given here.

How the values were obtained:
[1] = target: T1, 5-hydroxytryptamine receptor 2A (Homo sapiens, UniProt P28223); assay: Displacement of [3H]LSD from human 5-HT2A receptor expressed in HEK293 cell membrane incubated for 90 mins by microbeta liquid scintillation counting method; type: cell membranes
[2] = target: T1, 5-hydroxytryptamine receptor 2A; assay: Agonist activity at human 5-HT2A receptor expressed in HEK293 cells assessed as IP2 production measured after 30 mins incubation by HTRF assay; type: functional, cell-based
[3] = Lipophilicity, logP of the compound; type: physicochemical; conditions: octanol/water
[4] = target: 5-hydroxytryptamine receptor 2B (Homo sapiens, UniProt P41595); assay: Displacement of [3H]LSD from human 5-HT2B receptor expressed in HEK293 cell membrane incubated for 90 mins by microbeta liquid scintillation counting method; type: cell membranes
Mus musculus [5] = assay: Psychedelic effect in C57BL/6J mouse assessed as number of head-twitch responses by visual observation at 3 mg/kg, po measured for 3 mins at 5 to 25 min; type: functional; conditions: 0.05 h
[6] = target: T2, 5-hydroxytryptamine receptor 2C (Homo sapiens, UniProt P28335); assay: Displacement of [3H]LSD from human 5-HT2C receptor expressed in HEK293 cell membrane incubated for 90 mins by microbeta liquid scintillation counting method; type: cell membranes
T2 sequence (P28335 whole entry): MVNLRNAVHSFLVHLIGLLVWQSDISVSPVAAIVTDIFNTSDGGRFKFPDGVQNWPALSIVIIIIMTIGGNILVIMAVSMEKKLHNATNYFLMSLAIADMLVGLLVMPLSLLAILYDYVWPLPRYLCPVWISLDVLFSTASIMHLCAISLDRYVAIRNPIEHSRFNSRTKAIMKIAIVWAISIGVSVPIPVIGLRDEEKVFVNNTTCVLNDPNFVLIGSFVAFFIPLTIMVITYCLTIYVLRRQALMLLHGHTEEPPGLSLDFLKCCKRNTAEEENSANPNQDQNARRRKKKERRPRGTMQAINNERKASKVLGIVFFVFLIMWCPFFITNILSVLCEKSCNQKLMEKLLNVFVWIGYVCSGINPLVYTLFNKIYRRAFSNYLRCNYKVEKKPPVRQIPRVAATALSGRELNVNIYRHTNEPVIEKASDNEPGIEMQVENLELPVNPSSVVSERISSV

Mus musculus [7] = assay: Psychedelic effect in C57BL/6J mouse assessed as number of head-twitch responses by visual observation at 3 mg/kg, po measured for 3 mins at 160 to 170 min; type: functional; conditions: 0.05 h
[8] = Metabolic stability in Sprague-Dawley rat liver microsomes assessed as deuteration effect measured upto 120 mins by LC-MS/MS analysis; type: ADME, Microsome; conditions: 2 h
[9] = Metabolic stability of the compound assessed as recombinant human MAO-mediated oxidative metabolism by measuring compound remaining measured upto 120 mins by LC-MS/MS analysis; type: ADME; conditions: 2 h
[10] = target: T1, 5-hydroxytryptamine receptor 2A; assay: Agonist activity at human 5-HT2A receptor expressed in HEK293 cells assessed as maximal IP2 production measured after 30 mins incubation by HTRF assay relative to control; type: functional, cell-based; conditions: filed as agonist
Mus musculus [11] = assay: Psychedelic effect in C57BL/6J mouse assessed as number of head-twitch responses by visual observation at 3 to 30 mg/kg, po; type: functional, organism-based; conditions: dose 3-30 mg/kg

T1 sequence (P28223 whole entry): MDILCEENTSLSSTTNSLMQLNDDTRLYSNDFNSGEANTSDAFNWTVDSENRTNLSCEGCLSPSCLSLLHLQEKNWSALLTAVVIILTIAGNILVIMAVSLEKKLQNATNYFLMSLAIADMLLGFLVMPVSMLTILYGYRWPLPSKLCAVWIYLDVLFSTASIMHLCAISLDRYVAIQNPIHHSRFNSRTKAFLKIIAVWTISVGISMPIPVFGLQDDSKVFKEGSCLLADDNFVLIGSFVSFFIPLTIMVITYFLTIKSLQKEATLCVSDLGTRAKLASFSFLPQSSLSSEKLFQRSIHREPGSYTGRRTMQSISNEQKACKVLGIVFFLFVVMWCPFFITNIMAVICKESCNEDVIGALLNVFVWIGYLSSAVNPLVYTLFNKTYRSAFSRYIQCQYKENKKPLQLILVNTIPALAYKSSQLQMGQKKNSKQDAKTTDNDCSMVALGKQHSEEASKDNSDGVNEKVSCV
5-hydroxytryptamine receptor 2B, sequence (P41595 whole entry): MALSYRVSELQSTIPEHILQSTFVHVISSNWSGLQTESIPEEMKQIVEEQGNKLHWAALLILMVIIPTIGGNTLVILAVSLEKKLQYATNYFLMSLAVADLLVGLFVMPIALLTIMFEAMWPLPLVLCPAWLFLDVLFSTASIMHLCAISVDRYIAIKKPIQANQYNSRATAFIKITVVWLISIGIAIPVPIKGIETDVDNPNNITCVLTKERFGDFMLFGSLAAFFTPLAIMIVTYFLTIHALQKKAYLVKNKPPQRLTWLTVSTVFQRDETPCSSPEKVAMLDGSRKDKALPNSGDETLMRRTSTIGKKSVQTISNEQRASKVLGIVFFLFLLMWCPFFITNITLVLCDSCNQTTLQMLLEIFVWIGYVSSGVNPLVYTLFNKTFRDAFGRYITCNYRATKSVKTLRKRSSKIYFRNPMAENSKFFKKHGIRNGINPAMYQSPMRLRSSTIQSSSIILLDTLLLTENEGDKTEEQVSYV

`COc1cc(OCCC(F)F)c(OC)cc1CCN` gave a Ki ([1]; read-out: Ki) of 387 nM.
With `COc1cc(P(C)(C)=O)c(OC)cc1CCN.Cl` the EC50 ([2]; hek293) was “Not Active” and the logP [3] was -1.67.
Work on `COc1cc(SC(F)F)c(OC)cc1CCN.Cl` yielded a Ki ([1]; read-out: pKi (converted)) of 6.46 nM, a Ki [4] of 24 nM and an Activity (Mus musculus [5]) of 33. For the same compound, the Ki [6] was 16 nM and the Activity (Mus musculus [7]) was 17.
For `Cl.[2H]C([2H])([2H])Oc1cc(C(F)(F)F)c(OC([2H])([2H])[2H])cc1CCN`, the Stability [8] was “Stable” and the Stability [9] was “Stable”.
With `Cl.[2H]C([2H])([2H])Oc1cc(C(C)(C)C)c(OC([2H])([2H])[2H])cc1CCN` the Stability [8] was “Stable” and the Stability [9] was “Stable”.
With `Cl.[2H]C([2H])([2H])C(c1cc(OC)c(CCN)cc1OC)(C([2H])([2H])[2H])C([2H])([2H])[2H]` the Stability [8] was “Stable” and the Stability [9] was “Stable”.
With `COc1cc(C(C)=O)c(OC)cc1CCN.Cl` the EC50 ([2]; hek293) was “Not Active” and the logP [3] was 0.42.
In the case of `COc1cc(SSC(C)(C)C)c(OC)cc1CCN.Cl`, the Ki ([1]; read-out: Ki) is reported as 59 nM, the Ki [4] is reported as 10 nM and the Activity (Mus musculus [5]) is reported as 0.6. It also gave a Ki [6] of 26 nM and an Activity (Mus musculus [7]) of 4.8.
For `COc1cc(SSC(F)(F)F)c(OC)cc1CCN.Cl`, the Ki ([1]; read-out: Ki) was 78 nM, the Ki [4] was 66 nM and the Activity (Mus musculus [5]) was 1.8. For the same compound, the Ki [6] was 67 nM and the Activity (Mus musculus [7]) was 3.4.
For `COc1cc(SC(F)(F)F)c(OC)cc1CCNCC1CC1`, the EC50 ([2]; read-out: EC50) was 48 nM, the Ki ([1]; read-out: Ki) was 8.9 nM and the Emax [10] was 63%. For the same compound, the Activity (Mus musculus [11]) was “inactive”.
`COc1cc(OCCC(F)(F)F)c(OC)cc1CCN` showed a Ki ([1]; read-out: Ki) of 477 nM.
With `COc1cc(SCC(F)F)c(OC)cc1CCN` the Ki ([1]; read-out: Ki) was 146 nM.
`COc1cc(SC(F)(F)F)c(OC)cc1CC(C)N` (stereo not given) gave an EC50 ([2]; read-out: EC50) of 5.4 nM and an Emax [10] of 91%.
In the case of `Cl.[2H]C([2H])([2H])Oc1cc(C2CCCC2)c(OC([2H])([2H])[2H])cc1CCN`, the Stability [8] is reported as “Stable” and the Stability [9] is reported as “Stable”.
Compound `COc1cc([S+]([O-])C(F)F)c(OC)cc1CCN.Cl` (stereo not given) has a Ki ([1]; read-out: Ki) of 27 nM, a Ki [4] of 26 nM and an Activity (Mus musculus [5]) of 3. It also gave a Ki [6] of 82 nM and an Activity (Mus musculus [7]) of 4.
In the case of `COc1cc(S(=O)(=O)C(F)(F)F)c(OC)cc1CCN.Cl`, the Ki ([1]; read-out: Ki) is reported as 1.9 nM, the Ki [4] is reported as 8.4 nM and the Activity (Mus musculus [5]) is reported as 26. The Ki [6] was 13 nM and the Activity (Mus musculus [7]) was 28.
For `COc1cc(SCCC(F)F)c(OC)cc1CCN.Cl`, the Ki ([1]; read-out: Ki) was 23 nM, the Ki [4] was 6.8 nM and the Activity (Mus musculus [5]) was 5. It also gave a Ki [6] of 8.9 nM and an Activity (Mus musculus [7]) of 2.6.
In the case of `Cl.[2H]C([2H])(N)Cc1cc(OC)c(SC)cc1OC`, the Stability [8] is reported as “Stable” and the Stability [9] is reported as “Stable”.
In the case of `COc1cc(SC(C)(C)C)c(OC)cc1CCN`, the EC50 ([2]; read-out: EC50) is reported as 150 nM and the Activity (Mus musculus [11]) is reported as “inactive”.
`C#CCCCSc1cc(OC)c(CCN)cc1OC` gave an EC50 ([2]; read-out: EC50) of 1.8 nM, a Ki ([1]; read-out: Ki) of 2.3 nM and an Emax [10] of 78%.
With `COc1cc(N(C(C)C)C(C)C)c(OC)cc1CCN.Cl.Cl` the EC50 ([2]; hek293) was “Not Active” and the logP [3] was 2.7.
